The results in this text go back to ChEMBL document CHEMBL1152321, “Recent advances in the chemistry and biology of new generation taxoids” (J Nat Prod, 2009).

Assay [1] deals with HT-29. Kind of assay: Cytotoxicity against human HT-29 cells after 72 hrs. It counts as functional, cell-based. The following applies: HT-29, 72 h.
For assay [2], the system named is MCF7. Kind of assay: Cytotoxicity against human MCF7 cells expressing P-glycoprotein after 72 hrs. It counts as functional, cell-based. To be noted: MCF7, 72 h.
Assay [3] can be described thus: Cytotoxicity against human LCC-6 cells expressing P-glycoprotein after 72 hrs. It counts as functional, cell-based. The following applies: LCC-6, 72 h.
Assay [4] can be described thus: Resistance factor, ratio of IC50 for human LCC-6 cells expressing P-glycoprotein to IC50 for P-glycoprotein deficient wild type human LCC-6 cells. More on the design: reference not given here. It counts as functional.
Assay [5] relates to MCF7. Kind of assay: Resistance factor, ratio of IC50 for human MCF7 cells expressing P-glycoprotein to IC50 for P-glycoprotein deficient wild type human MCF7 cells. It counts as functional.
In assay [6] the test system is MCF7. The experiment in a line: Cytotoxicity against P-glycoprotein deficient wild type human MCF7 cells after 72 hrs. It counts as functional, cell-based. The following applies: MCF7, 72 h.
For assay [7], the system named is NCI-H460. The experiment in a line: Cytotoxicity against human H460 cells after 72 hrs. It counts as functional, cell-based. The following applies: NCI-H460, 72 h.
Assay [8] is described as follows: Cytotoxicity against P-glycoprotein deficient wild type human LCC-6 cells after 72 hrs. It counts as functional, cell-based. The following applies: LCC-6, 72 h.

In general, IC50 refers to the concentration needed to halve the response being measured. For `CCC(=O)O[C@H]1C(=O)[C@@]2(C)[C@H]([C@H](OC(=O)c3cccc(N=[N+]=[N-])c3)[C@]3(O)C[C@H](OC(=O)[C@H](O)[C@@H](NC(=O)OC(C)(C)C)C(F)F)C(C)=C1C3(C)C)[C@]1(OC(C)=O)CO[C@@H]1C[C@@H]2O`, the IC50 in assay [1] is 0.37 nM; in assay [2], 0.96 nM; in assay [3], 1.15 nM; in assay [6], 0.32 nM; in assay [7] it was 0.27 nM; in assay [8], 0.39 nM. In addition, the Ratio in assay [4] was 2.9; in assay [5], 3.
For `CC(=O)O[C@@]12CO[C@@H]1C[C@H](O)[C@@]1(C)C(=O)[C@H](OC(=O)N(C)C)C3=C(C)[C@@H](OC(=O)[C@H](O)[C@@H](NC(=O)OC(C)(C)C)C(F)(F)F)C[C@@](O)([C@@H](OC(=O)c4cccc(Cl)c4)[C@H]21)C3(C)C`, the IC50 turned out to be 0.45 nM in assay [1]; 1.02 nM in assay [2]; 2.55 nM in assay [3]; 0.12 nM in assay [6]; 0.42 nM in assay [7]; 0.27 nM in assay [8]. Also, the Ratio in assay [4] is reported as 9.4; in assay [5] it was 8.5.
With `COC(=O)O[C@H]1C(=O)[C@@]2(C)[C@H]([C@H](OC(=O)c3cccc(Cl)c3)[C@]3(O)C[C@H](OC(=O)[C@H](O)[C@@H](NC(=O)OC(C)(C)C)C(F)F)C(C)=C1C3(C)C)[C@]1(OC(C)=O)CO[C@@H]1C[C@@H]2O`, the IC50 stood at 0.29 nM in assay [1]; 2.08 nM in assay [2]; 1.82 nM in assay [3]; 0.26 nM in assay [6]; 0.25 nM in assay [7]; 0.13 nM in assay [8]. The Ratio is reported as 14 in assay [4] and 8 in assay [5].
In the case of `CCC(=O)O[C@H]1C(=O)[C@@]2(C)[C@H]([C@H](OC(=O)c3cccc(F)c3)[C@]3(O)C[C@H](OC(=O)[C@H](O)[C@@H](NC(=O)OC(C)(C)C)C(F)(F)F)C(C)=C1C3(C)C)[C@]1(OC(C)=O)CO[C@@H]1C[C@@H]2O`, the IC50 in assay [1] worked out at 1.15 nM; in assay [2], 3.78 nM; in assay [3], 4.27 nM; in assay [6] it was 0.68 nM; in assay [7] it was 0.59 nM; in assay [8], 0.82 nM. The values for the Ratio in assay [4] and in assay [5] were 5.2 and 5.6, respectively.
Turning to `COc1cccc(C(=O)O[C@H]2[C@@H]3[C@]4(OC(C)=O)CO[C@@H]4C[C@H](O)[C@@]3(C)C(=O)[C@H](OC(=O)N(C)C)C3=C(C)[C@@H](OC(=O)[C@H](O)[C@@H](NC(=O)OC(C)(C)C)C(F)F)C[C@]2(O)C3(C)C)c1`, the IC50 was found to be 0.43 nM in assay [1]; 4.51 nM in assay [2]; 7.06 nM in assay [3]; 0.45 nM in assay [6]; 0.4 nM in assay [7]; 0.69 nM in assay [8]. Besides, the Ratio in assay [4] and in assay [5] was 10 throughout.
`COC(=O)O[C@H]1C(=O)[C@@]2(C)[C@H]([C@H](OC(=O)c3cccc(Cl)c3)[C@]3(O)C[C@H](OC(=O)[C@H](O)[C@@H](NC(=O)OC(C)(C)C)C(F)(F)F)C(C)=C1C3(C)C)[C@]1(OC(C)=O)CO[C@@H]1C[C@@H]2O`: the IC50 in assay [1] worked out at 0.68 nM; in assay [2], 4.72 nM; in assay [3], 5.08 nM; in assay [6], 0.65 nM; in assay [7], 0.43 nM; in assay [8] it was 0.29 nM. In addition, the Ratio in assay [4] came out at 18; in assay [5] it was 7.3.
Turning to `COC(=O)O[C@H]1C(=O)[C@@]2(C)[C@H]([C@H](OC(=O)c3cccc(OC)c3)[C@]3(O)C[C@H](OC(=O)[C@H](O)[C@@H](NC(=O)OC(C)(C)C)C(F)F)C(C)=C1C3(C)C)[C@]1(OC(C)=O)CO[C@@H]1C[C@@H]2O`, the IC50 in assay [1] turned out to be 0.44 nM; in assay [2], 6.59 nM; in assay [3], 10.2 nM; in assay [6] it was 0.81 nM; in assay [7], 0.3 nM; in assay [8], 1.03 nM. For the same compound, the Ratio in assay [4] came out at 9.9; in assay [5] it was 8.1.
Take `COC(=O)O[C@H]1C(=O)[C@@]2(C)[C@H]([C@H](OC(=O)c3cccc(N=[N+]=[N-])c3)[C@]3(O)C[C@H](OC(=O)[C@H](O)[C@@H](NC(=O)OC(C)(C)C)C(F)F)C(C)=C1C3(C)C)[C@]1(OC(C)=O)CO[C@@H]1C[C@@H]2O`: the IC50 in assay [1] was determined as 0.36 nM; in assay [2] it was 2.56 nM; in assay [3], 2.06 nM; in assay [6] it was 1.69 nM; in assay [7] it was 0.23 nM; in assay [8], 0.26 nM. In addition, the Ratio in assay [4] is reported as 7.9; in assay [5], 1.5.
With `CCC(=O)O[C@H]1C(=O)[C@@]2(C)[C@H]([C@H](OC(=O)c3cccc(OC)c3)[C@]3(O)C[C@H](OC(=O)[C@H](O)[C@@H](NC(=O)OC(C)(C)C)C(F)(F)F)C(C)=C1C3(C)C)[C@]1(OC(C)=O)CO[C@@H]1C[C@@H]2O`, the IC50 in assay [1] was 0.54 nM; in assay [2] it was 2.16 nM; in assay [3], 4.24 nM; in assay [6], 0.19 nM; in assay [7], 0.41 nM; in assay [8], 0.45 nM. The Ratio in assay [4] turned out to be 9; in assay [5] it was 11.
Consider `CCC(=O)O[C@H]1C(=O)[C@@]2(C)[C@H]([C@H](OC(=O)c3cccc(Cl)c3)[C@]3(O)C[C@H](OC(=O)[C@H](O)[C@@H](NC(=O)OC(C)(C)C)C(F)F)C(C)=C1C3(C)C)[C@]1(OC(C)=O)CO[C@@H]1C[C@@H]2O`, for which the IC50 in assay [1] stood at 0.43 nM; in assay [2], 5.2 nM; in assay [3], 4.71 nM; in assay [6] it was 0.44 nM; in assay [7], 0.3 nM; in assay [8], 0.52 nM. In addition, the results for the Ratio in assay [4] and in assay [5] were 9.1 and 12, respectively.
For the compound `COC(=O)O[C@H]1C(=O)[C@@]2(C)[C@H]([C@H](OC(=O)c3cccc(OC)c3)[C@]3(O)C[C@H](OC(=O)[C@H](O)[C@@H](NC(=O)OC(C)(C)C)C(F)(F)F)C(C)=C1C3(C)C)[C@]1(OC(C)=O)CO[C@@H]1C[C@@H]2O`, the IC50 in assay [1] is 0.53 nM; in assay [2], 2.88 nM; in assay [3] it was 3.99 nM; in assay [6], 0.17 nM; in assay [7], 0.38 nM; in assay [8], 0.27 nM. In addition, the Ratio in assay [4] is recorded as 15; in assay [5] it was 17.
In the case of `CCC(=O)O[C@H]1C(=O)[C@@]2(C)[C@H]([C@H](OC(=O)c3cccc(F)c3)[C@]3(O)C[C@H](OC(=O)[C@H](O)[C@@H](NC(=O)OC(C)(C)C)C(F)F)C(C)=C1C3(C)C)[C@]1(OC(C)=O)CO[C@@H]1C[C@@H]2O`, the IC50 is 0.86 nM in assay [1]; 7.24 nM in assay [2]; 4.63 nM in assay [3]; 0.53 nM in assay [6]; 0.41 nM in assay [7]; 0.88 nM in assay [8]. Further, the Ratio is 3.5 in assay [4] and 14 in assay [5].
Consider `COC(=O)O[C@H]1C(=O)[C@@]2(C)[C@H]([C@H](OC(=O)c3cccc(F)c3)[C@]3(O)C[C@H](OC(=O)[C@H](O)[C@@H](NC(=O)OC(C)(C)C)C(F)(F)F)C(C)=C1C3(C)C)[C@]1(OC(C)=O)CO[C@@H]1C[C@@H]2O`, for which the IC50 in assay [1] is 0.85 nM; in assay [2], 4.88 nM; in assay [3], 5.81 nM; in assay [6] it was 0.31 nM; in assay [7], 0.61 nM; in assay [8] it was 0.39 nM. Further, the Ratio came out at 15 in assay [4] and 16 in assay [5].
